Laboratory results: paper PMC12677699, “Utilizing Proteolytic‐Resistant Nano‐Short Peptide Based on Naphthyl Tail‐Anchored to Combat Bacterial Infections” (Advanced Science, 2025)
Converted amounts (≈) assume the structure as drawn. Non-standard residues stand in square brackets, D forms with d. Residues, ends and D or L forms follow the SMILES beside them. ξ: configuration not given here. ξAhp(2) = CCCCCC(N)C(=O)O

Assays:
E. coli 25922 = assay type: cell-based, Escherichia coli
How it was run: (§1)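 Strains are revived, grown to log phase in MHB and adjusted to a final 0.5–1 × 10⁶ CFU mL^−1. Peptide is serially diluted in 0.2% BSA and combined in equal volume with the suspension. Plates incubate 20–22 h at 37 °C before absorbance is read at 492 nm.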

E. coli UB1005 = assay type: cell-based, Escherichia coli
How it was run: as §1

E. faecalis 29212 = assay type: cell-based, Enterococcus faecalis
Protocol: The MIC values of the nano‐short peptides were determined according to standard protocols.^[ [63] ^] Bacterial strains were revived from cryopreservation and cultured in Mueller–Hinton broth (MHB) to logarithmic growth phase, then diluted to a final density of 0.5–1 × 10⁶ CFU mL^−1. Serial dilutions of the nano‐short peptides were prepared in 0.2% bovine serum albumin (BSA) using a 96‐well plate format. Equal volumes of peptide solutions and bacterial suspensions were combined and incubated at 37 °C for 20–22 h. Bacterial growth was assessed by measuring absorbance at 492 nm, with MHB alone (negative control) and untreated bacterial suspension (positive control) included for reference.

E. coli ATCC 25922 [1] = experiment: Serum tolerance assay (MIC after incubation with serum); assay type: cell-based, Escherichia coli; conditions: 4 h of incubation with various serum concentrations
Protocol: The serum stability of nano‐short peptides was evaluated by incubating peptide solutions with fetal bovine serum (FBS), which was at concentrations of 25%, 50%, and 100% (diluted in 0.2% BSA solution). Following 4 h of incubation, the antimicrobial activity was determined by measuring the MIC against the test strains.

ThT fluorescence assay = assay type: physicochemical; conditions: 16 × 10^−6 M N4, ThT 40 × 10^−6 M, deionized water, 20 min, 37 °C
Protocol: The fluorescent dye was used for fluorescence measurements and imaging of N4. ^[ [48] ^] […] An equal volume of ThT solution was added to each well (final concentration: 40 × 10^−6 M), with ThT in deionized water serving as the control. After 20 min incubation at 37 °C, fluorescence intensity was measured using a microplate reader (excitation λ = 450 nm, emission λ = 480 nm). N4 was stained with 40 × 10^−6 M ThT for 30 min and observed by imaging using a fluorescence microscope.

[2] = LPS binding, BODIPY-TR-cadaverine displacement; conditions: BC displacement, polymyxin B 10 µg mL^−1 = 100%, n = 3
Protocol: The binding ability of nano‐short peptides to LPS and LTA was evaluated using a BODIPY‐TR‐cadaverine (BC) displacement assay.^[ [59] ^] Test solutions containing LPS or LTA (50 µg mL^−1) were pre‐incubated with BC dye (5 µg mL^−1) for 4 h in the dark. Peptide solutions at varying concentrations were then mixed with the LPS or LTA, polymyxin B (final concentration 10 µg mL^−1) was used as a positive control, and LPS or LTA mixed with dye solution was used as a negative control. The fluorescence intensity (excitation λ = 580 nm, emission λ = 620 nm) was measured. %ΔF (au) = [(F treated – F negative control)/(F positive control – F negative control)] × 100%.

E. coli ATCC 25922 [3] = experiment: Outer membrane permeability, NPN; assay type: cell-based, Escherichia coli; conditions: n = 3
Protocol: The NPN fluorescent probe was used to assess the permeability of the outer membrane.^[ [29] ^] A logarithmic phase culture of E. coli ATCC 25922 bacterial solution was diluted to OD600 = 0.2 in a 5 × 10^−3 M HEPES buffer (pH = 7.4 with 5 × 10^−3 M glucose). Following the addition of NPN (final concentration: 10 × 10^−6 M), the mixture was incubated for 30 min in the dark. Subsequently, the bacterial suspension was mixed with an equal volume of nano‐short peptides solution at different concentrations. Polymyxin B (10 µg mL^−1) was used as a positive control, while an untreated bacterial dilution served as the negative control. Fluorescence intensity was measured (excitation λ = 350 nm, emission λ = 420 nm) using a microplate reader. The percentage of outer membrane permeability was calculated as: Permeability% = [(F treated – F negative control)/(F positive control – F negative control)] × 100%.

E. coli ATCC 25922 [4] = experiment: Cytoplasmic membrane permeability, ONPG hydrolysis; assay type: cell-based, Escherichia coli; conditions: within 1800 s
Description: The ONPG hydrolysis assay was employed to determine the effects of nano‐short peptides on permeability of E. coli ATCC 25922 cytoplasmic membranes. The detailed experimental procedures followed the previously published methodology.^[ [30] ^]

E. coli ATCC 25922 [5] = experiment: ROS generation, DCFH-DA; assay type: cell-based, Escherichia coli; conditions: 16 × 10^−6 M, E. coli ATCC 25922, DCFH-DA, 1 h; n = 3
Protocol: ROS accumulation levels were assessed by the fluorescent probe DCFH‐DA.^[ [63] ^] Logarithmic growth stage E. coli ATCC 25922 and S. aureus ATCC 29213 bacterial solutions were diluted to OD600 = 0.4 in PBS (pH = 7.4, 10 × 10^−3 M), followed by incubation with DCFH‐DA final concentration of 10 × 10^−6 M) for 30 min at 37 °C. Subsequently, the bacterial suspensions were then mixed with different concentrations of nano‐short peptides dilutions in equal volumes in a 96‐well plate and continued to incubate for 1 h (37 °C). Finally, the fluorescence intensity was measured using a microplate reader (excitation λ = 488 nm, emission λ = 525 nm).

MRSA = experiment: MRSA-mediated skin infection model; assay type: in vivo, mouse; design: bacterial load in skin tissue, Day 5 / bacterial load in skin tissue, Day 9: dose or concentration left out as unconfirmed; conditions: MRSA wound, n = 8
Description: The mouse skin infection model was based on previous research with some modifications.^[ [62] ^] The mice utilized in the […] were consistent with those employed in the in vivo toxicity assessment. Forty‐eight mice were randomly divided into three groups after a 3‐day pre‐feeding period, including control, N4‐treated and MRSA‐infected groups. Initially, the dorsal regions of the mice were depilated (Day ‐1). On the following day (Day 0), circular incisions were made on the dorsal surfaces, and 10 µL of saline‐diluted MRSA suspension (OD600 = 0.2) was applied to the wounds of the mice in N4‐treated and MRSA‐infected groups, while an equivalent volume of saline was administered to the wounds in the control mice. […] The above treatments were repeated after […] (Day 3). Throughout the experimental period, representative images of the wounds were captured.
Mice were euthanized on Days 5 and 9 post‐infection, and skin tissue homogenates were quantified for bacterial load. Subsequently, the supernatants of skin tissue homogenates from mice on Day 9 were selected for the detection of inflammatory factors, and wound tissues were collected for histological, Masson and immunofluorescence analyses.

[6] = Day 9, vs infected group, p < 0.05

Structure (SMILES) | MIC, E. coli 25922 (E. coli 25922) [µM] | MIC, E. coli UB1005 (E. coli UB1005) [µM] | MIC, E. faecalis 29212 (E. faecalis 29212) [µM] | antimicrobial capacity after serum incubation (E. coli ATCC 25922 [1]) | ThT fluorescence intensity (ThT fluorescence assay) | LPS binding, % of polymyxin B's binding efficiency ([2]; 8 × 10^−6 M) [%] | LPS binding, % of polymyxin B's binding efficiency ([2]; 16 × 10^−6 M) [%] | outer membrane disruption compared to polymyxin B (E. coli ATCC 25922 [3]; 8 × 10^−6 M) [%] | outer membrane disruption compared to polymyxin B (E. coli ATCC 25922 [3]; 16 × 10^−6 M) [%] | increase in absorbance at 420 nm (ONPG hydrolysis) (E. coli ATCC 25922 [4]; 8 μM) | increase in absorbance at 420 nm (ONPG hydrolysis) (E. coli ATCC 25922 [4]; 16 μM) [fold] | increase of ROS content vs untreated bacteria (E. coli ATCC 25922 [5]) [fold] | bacterial load in skin tissue, Day 9 (MRSA; 10 µL of N4, twice a day on Day 1 and Day 3, topical, infected group 6.89) [log10 CFU g^−1] | bacterial load in skin tissue, Day 5 (MRSA; 10 µL of N4, twice a day on Day 1 and Day 3, topical, infected group 7.1) [log10 CFU g^−1] | anti-inflammatory cytokine IL-10 in supernatant of skin tissues (MRSA; [6]) | pro-inflammatory cytokines (IL-1β, IL-6, TNF-α) in supernatant of skin tissues (MRSA; [6])
N=C(N)NCCC[C@H](NC(=O)[C@@H](CCCNC(=N)N)NC(=O)[C@H](Cc1cccc2ccccc12)NC(=O)[C@H](Cc1cccc2ccccc12)NC(=O)[C@H](Cc1cccc2ccccc12)NC(=O)[C@@H](N)Cc1cccc2ccccc12)C(=O)N[C@@H](CCCNC(=N)N)C(=O)N1CCC[C@H]1C(=O)O (stereo in doubt) [Peptide N4] | 8 (≈ 11 µg/mL) | 4 (≈ 5.49 µg/mL) | 4 (≈ 5.49 µg/mL) | retained their original antimicrobial capacity | significant increase | 60.67 | 99.47 | 92.06 | 108.41 | approximately 2 fold | ~5 | 2.26 | 6.12 | 6.59 | significant increase | significant decrease
CCCCCC(N)C(=O)NC(CCCCC)C(=O)NC(CCCCC)C(=O)NC(CCCCC)C(=O)N[C@H](CCCNC(=N)N)C(=O)N[C@@H](CCCNC(=N)N)C(=O)N[C@@H](CCCNC(=N)N)C(=O)N1CCC[C@H]1C(=O)O (stereo partly shown) [Peptide B4] (H-[ξAhp(2)][ξAhp(2)][ξAhp(2)][ξAhp(2)][dR]RRP-OH; N-terminus assumed) | 16 (≈ 17.5 µg/mL) | 8 (≈ 8.74 µg/mL) | 32 (≈ 35 µg/mL) | retained their original antimicrobial capacity | – | 40.51 | 54.24 | 37.37 | 57.94 | – | – | 1.51 | – | – | – | –
